Assay [1] concerns KRas-mediated phosphorylation of ERK in MKN1 cells. Description: Inhibition of KRas-mediated phosphorylation of ERK (Cisbio HTRF pERK), MKN1 cells. It counts as cell-based. The note with it: Homo sapiens, MKN-1. How it is done: (§1) Inhibition of KRas Phosphorylation of ERK (HTRF) by Exemplary Compounds of Formula (I)
(§2) Cisbio HTRF Advanced PERK Assay Catalog #64AERPEH
(§3) Day 1: Seed 6,000 cells/well-25 μl/well in 384-well white solid bottom plate; RPM1_10% FBS. Incubate overnight at 37° C./5% CO2.
(§4) Incubate for 4 hours at room temperature covered.
(§5) Read HTRF using ClarioStar
A general note: TR-FRET usually uses a lanthanide donor and a delayed reading to cut background.

Assay [2] deals with T1, KRas^G12D (Homo sapiens, UniProt P01116, G12D).
T1 construct: Biotinylated KRas (corresponding to amino acids 1-169, produced at Accelegan Inc.); biotin (biotinylated); purchased Accelegan Inc
T1 sequence (P01116 1-169 isoform P01116-2 G12D): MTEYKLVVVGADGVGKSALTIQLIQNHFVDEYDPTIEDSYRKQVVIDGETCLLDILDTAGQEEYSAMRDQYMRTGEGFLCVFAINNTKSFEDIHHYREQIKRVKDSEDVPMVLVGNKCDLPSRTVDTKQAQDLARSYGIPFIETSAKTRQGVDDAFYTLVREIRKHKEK
Kind of assay: KRas binding assay (TR-FRET tracer displacement), KRas G12D.

For assay [3], the system named is KRas-mediated phosphorylation of ERK in AsPC-1 cells. Description: Inhibition of KRas-mediated phosphorylation of ERK (Cisbio HTRF pERK), AsPC-1 cells. It counts as cell-based. The note with it: Homo sapiens, ASPC1, AsPC-1 cells; HTRF pERK. In short, it runs like this: (§6)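 H358, H727, H460 and AsPC-1 cells seeded at 6,000/well, treated 3 hrs with 10-dose 3-fold dilutions from 10 uM (0.8% DMSO); 0.2 uM trametinib as min control. Lysed 40 min at 4° C; lysate incubated 2 hrs at room temperature with d2/cryptate antibodies, HTRF read.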

Assay [4] concerns KRas-mediated phosphorylation of ERK in H727 cells. Description: Inhibition of KRas-mediated phosphorylation of ERK (Cisbio HTRF pERK), H727 cells. In kind it is cell-based. The note with it: Homo sapiens, NCI-H727, H727 cells; HTRF pERK. In outline:
as §6

Assay [5] addresses T2, KRas^G12R (Homo sapiens, UniProt P01116, G12R).
T2 construct: Biotinylated KRas (corresponding to amino acids 1-169, produced at Accelegan Inc.); biotin (biotinylated); purchased Accelegan Inc
Kind of assay: KRas binding assay (TR-FRET tracer displacement), KRas G12R.

Assay [6] deals with T3, KRas^G12V (Homo sapiens, UniProt P01116, G12V).
T3 construct: Biotinylated KRas (corresponding to amino acids 1-169, produced at Accelegan Inc.); biotin (biotinylated); purchased Accelegan Inc
T3 sequence (P01116 1-169 isoform P01116-2 G12V): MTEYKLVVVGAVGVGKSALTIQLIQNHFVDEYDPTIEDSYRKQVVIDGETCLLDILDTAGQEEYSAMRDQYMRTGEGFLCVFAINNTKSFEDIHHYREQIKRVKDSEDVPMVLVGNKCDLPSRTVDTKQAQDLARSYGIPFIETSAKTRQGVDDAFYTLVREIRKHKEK
Kind of assay: KRas binding assay (TR-FRET tracer displacement), KRas G12V.

In assay [7] the test system is KRas-mediated phosphorylation of ERK in PSN1 cells. Description: Inhibition of KRas-mediated phosphorylation of ERK (Cisbio HTRF pERK), PSN1 cells. It counts as cell-based. The conditions noted are these: Homo sapiens. How it is done:
as §1, §2, §3, §4, §5

T2 sequence (P01116 1-169 isoform P01116-2 G12R): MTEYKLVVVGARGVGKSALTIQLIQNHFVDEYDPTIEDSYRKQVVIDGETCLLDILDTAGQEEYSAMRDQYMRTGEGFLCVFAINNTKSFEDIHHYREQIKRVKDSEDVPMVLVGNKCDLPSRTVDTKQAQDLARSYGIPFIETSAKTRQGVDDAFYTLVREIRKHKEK

The term IC50 denotes the midpoint of a concentration-inhibition curve. Lower therefore signals inhibition by little substance. Regarding `CCc1c(F)ccc2cc(O)cc(-c3ncc4c(N5CCCCC(S(N)(=O)=O)C5)nc(OC[C@@]56CCCN5C[C@H](F)C6)nc4c3F)c12` (stereo partly drawn) [Example 633, 1-(7-(8-ethyl-7-fluoro-3-hydroxynaphthalen-1-yl)-8-fluoro-2-(((2R,7aS)-2-fluorohexahydro-1H-pyrrolizin-7a-yl)methoxy)pyrido[4,3-d]pyrimidin-4-yl)azepane-3-sulfonamide], the IC50 in assay [1] was greater than 10000 nM; in assay [2], 8850 nM; in assay [3] it was greater than 10000 nM; in assay [4], greater than 10000 nM; in assay [5], 6610 nM; in assay [6] it was 2820 nM. This compound showed a half-maximal inhibitory concentration (IC50) in assay [7] greater than 10000 nM.

Turning to `CCc1c(F)ccc2cc(O)cc(-c3ncc4c(N5CCC(c6ccc(=O)[nH]n6)C5)nc(OC[C@@]56CCCN5C[C@H](F)C6)nc4c3F)c12` (stereo partly drawn) [Example 608, 6-(1-(7-(8-ethyl-7-fluoro-3-hydroxynaphthalen-1-yl)-8-fluoro-2-(((2R,7aS)-2-fluorotetrahydro-1H-pyrrolizin-7a(5H)-yl)methoxy)pyrido[4,3-d]pyrimidin-4-yl)pyrrolidin-3-yl)pyridazin-3 (2H)-one], the half-inhibitory concentration (IC50) in assay [1] was greater than 10000 nM; in assay [2], 1250 nM; in assay [3], greater than 10000 nM; in assay [4], greater than 10000 nM; in assay [5], 267 nM; in assay [6] it was 88 nM. The compound also had an IC50 in assay [7] greater than 10000 nM.

In the case of `CCc1c(F)ccc2cc(O)cc(-c3ncc4c(N5C[C@@H]6OCCN[C@@H]6C5)nc(OC[C@@]56CCCN5C[C@H](F)C6)nc4c3F)c12` [Example 555, 5-ethyl-6-fluoro-4-(8-fluoro-2-(((2R,7aS)-2-fluorotetrahydro-1H-pyrrolizin-7a(5H)-yl)methoxy)-4-(hexahydropyrrolo[3,4-b][1,4]oxazin-6 (2H)-yl)pyrido[4,3-d]pyrimidin-7-yl)naphthalen-2-ol], the IC50 in assay [1] was 4020 nM; in assay [2], 2030 nM; in assay [3], greater than 10000 nM; in assay [4], greater than 10000 nM; in assay [5] it was 2030 nM; in assay [6], 512 nM. In assay [7], this compound yielded an IC50 greater than 10000 nM.

As for `CCc1c(F)ccc2cc(O)cc(-c3ncc4c(N[C@H](C)c5cc(C(=O)N(C)C)nn5C)nc(OC[C@@]56CCCN5C[C@H](F)C6)nc4c3F)c12` [Example 651, 5-((R)-1-((7-(8-ethyl-7-fluoro-3-hydroxynaphthalen-1-yl)-8-fluoro-2-(((2R,7aS)-2-fluorohexahydro-1H-pyrrolizin-7a-yl)methoxy)pyrido[4,3-d]pyrimidin-4-yl)amino)ethyl)-N,N,1-trimethyl-1H-pyrazole-3-carboxamide], the IC50 in assay [1] was determined as 546 nM; in assay [2], 30 nM; in assay [3], 1460 nM; in assay [4], 1790 nM; in assay [5], 15 nM; in assay [6] it was 10 nM. In assay [7], this compound came in with an IC50 greater than 10000 nM.

As for `CCc1c(F)ccc2cc(O)cc(-c3ncc4c(NCc5cc(C(=O)N(C)C)nn5C5COC5)nc(OC[C@@]56CCCN5C[C@H](F)C6)nc4c3F)c12` [Example 810, 5-(((7-(8-ethyl-7-fluoro-3-hydroxynaphthalen-1-yl)-8-fluoro-2-(((2R,7aS)-2-fluorotetrahydro-1H-pyrrolizin-7a(5H)-yl)methoxy)pyrido[4,3-d]pyrimidin-4-yl)amino)methyl)-N,N-dimethyl-1-(oxetan-3-yl)-1H-pyrazole-3-carboxamide], the 50% inhibitory concentration (IC50) in assay [1] was 110 nM; in assay [2], 13 nM; in assay [3] it was greater than 10000 nM; in assay [4], 4980 nM; in assay [5] it was 4 nM; in assay [6] it was 4 nM. Also, the half-maximal inhibitory concentration (IC50) in assay [7] is greater than 10000 nM.

Regarding `CCc1c(F)ccc2cc(O)cc(-c3ncc4c(N5CC6CCC(CC6)C5)nc(OC[C@@]56CCCN5C[C@H](F)C6)nc4c3F)c12` [Example 844, 4-(4-(3-azabicyclo[3.2.2]nonan-3-yl)-8-fluoro-2-(((2R,7aS)-2-fluorotetrahydro-1H-pyrrolizin-7a(5H)-yl)methoxy)pyrido[4,3-d]pyrimidin-7-yl)-5-ethyl-6-fluoronaphthalen-2-ol], the half-inhibitory concentration (IC50) was 198 nM in assay [1]; 103 nM in assay [2]; 3330 nM in assay [3]; 2900 nM in assay [4]; 46 nM in assay [5]; 35 nM in assay [6]. Also, in assay [7], the IC50 is greater than 10000 nM.

For `CCc1c(F)ccc2cc(O)cc(-c3ncc4c(N5CCC[C@@](C)(O)C5)nc(OC[C@@]56CCCN5C[C@H](F)CC6)nc4c3F)c12` [Example 815, (R)-1-(7-(8-ethyl-7-fluoro-3-hydroxynaphthalen-1-yl)-8-fluoro-2-(((6R,8aS)-6-fluorohexahydroindolizin-8a (1H)-yl)methoxy)pyrido[4,3-d]pyrimidin-4-yl)-3-methylpiperidin-3-ol], the IC50 was 22 nM in assay [1]; 2 nM in assay [2]; 32 nM in assay [3]; 28 nM in assay [4]; 4 nM in assay [5]; less than 2 nM in assay [6]. For the same compound, the IC50 in assay [7] was 2290 nM.

On to `CCc1c(F)ccc2cc(O)cc(-c3ncc4c(N5CCCn6cnnc6C5)nc(OC[C@@]56CCCN5C[C@H](F)C6)nc4c3F)c12` [Example 563, 4-(4-(6,7-dihydro-5H-[1,2,4]triazolo[4,3-a][1,4]diazepin-8 (9H)-yl)-8-fluoro-2-(((2R,7aS)-2-fluorotetrahydro-1H-pyrrolizin-7a(5H)-yl)methoxy)pyrido[4,3-d]pyrimidin-7-yl)-5-ethyl-6-fluoronaphthalen-2-ol], for which the IC50 was greater than 10000 nM in assay [1]; 85 nM in assay [2]; greater than 10000 nM in assay [3]; greater than 10000 nM in assay [4]; 238 nM in assay [5]; 100 nM in assay [6]. Moreover, the IC50 in assay [7] was greater than 10000 nM.

On to `CCc1c(F)ccc2cc(O)cc(-c3ncc4c(N5CC6CCCC(C6)C5)nc(OC[C@@]56CCCN5C[C@H](F)C6)nc4c3F)c12` [Example 551, 4-(4-(3-azabicyclo[3.3.1]nonan-3-yl)-8-fluoro-2-(((2R,7aS)-2-fluorotetrahydro-1H-pyrrolizin-7a(5H)-yl)methoxy)pyrido[4,3-d]pyrimidin-7-yl)-5-ethyl-6-fluoronaphthalen-2-ol], for which the IC50 in assay [1] was 1460 nM; in assay [2], 127 nM; in assay [3], 2500 nM; in assay [4], 814 nM; in assay [5] it was 27 nM; in assay [6], 32 nM. In assay [7], this compound yielded an IC50 greater than 10000 nM.

Turning to `O=S1(=O)CCC2(CCCN(c3nc(OC[C@@]45CCCN4C[C@H](F)C5)nc4c(F)c(-c5cc(O)cc6ccc(F)c(Cl)c56)ncc34)C2)N1` (stereo partly drawn) [Example 807, 7-(7-(8-chloro-7-fluoro-3-hydroxynaphthalen-1-yl)-8-fluoro-2-(((2R,7aS)-2-fluorotetrahydro-1H-pyrrolizin-7a(5H)-yl)methoxy)pyrido[4,3-d]pyrimidin-4-yl)-2-thia-1,7-diazaspiro[4.5]decane 2,2-dioxide], the IC50 in assay [1] was 3 nM; in assay [2], less than 2 nM; in assay [3], 32 nM; in assay [4] it was 14 nM; in assay [5] it was less than 2 nM; in assay [6] it was 3 nM. This compound returned an IC50 in assay [7] of 125 nM.

As to `CCc1c(F)ccc2cc(O)cc(-c3ncc4c(N5CCC[C@@]6(CC[S@+]([O-])C6)C5)nc(OC[C@@]56CCCN5C[C@H](F)C6)nc4c3F)c12` (single isomer, unassigned) [Example 624], the IC50 in assay [1] worked out at 834 nM; in assay [2] it was 19 nM; in assay [3], 4030 nM; in assay [4], 3990 nM; in assay [5], 41 nM; in assay [6], 17 nM. In assay [7], this compound yielded an IC50 greater than 10000 nM.

Consider `CCc1c(F)ccc2cc(O)cc(-c3ncc4c(NCC5CC(CO)NC5=O)nc(OC[C@@]56CCCN5C[C@H](F)C6)nc4c3F)c12` (stereo partly drawn) [Example 575, 3-(((7-(8-ethyl-7-fluoro-3-hydroxynaphthalen-1-yl)-8-fluoro-2-(((2R,7aS)-2-fluorotetrahydro-1H-pyrrolizin-7a(5H)-yl)methoxy)pyrido[4,3-d]pyrimidin-4-yl)amino)methyl)-5-(hydroxymethyl)pyrrolidin-2-one], for which the IC50 was 417 nM in assay [1]; 25 nM in assay [2]; greater than 10000 nM in assay [3]; greater than 10000 nM in assay [4]; 27 nM in assay [5]; 7 nM in assay [6]. In addition, in assay [7], the half-inhibitory concentration (IC50) is greater than 10000 nM.

The record behind these values is US20260015350A1, “AZAQUINAZOLINE PAN-KRAS INHIBITORS” (Mirati Therapeutics, Inc., priority 2022, published 2026).
